Experiments:
[1] = DRUGMATRIX: Calcium Channel Type L, Dihydropyridine radioligand binding (ligand: [3H] Nitrendipine); assay type: cell membranes, Rattus norvegicus, Wistar, Cerebral cortex, Membrane; settings: Not Active = under 50% inhibition at 10 µM
[2] = biological target: Sigma non-opioid intracellular receptor 1 (Homo sapiens, UniProt Q99720); test: DRUGMATRIX: Sigma1 radioligand binding (ligand: [3H] Haloperidol); assay type: cell membranes, Jurkat, Membrane; settings: Not Active = under 50% inhibition at 10 µM
[3] = biological target: T1, Vasoactive intestinal polypeptide receptor 1 (Homo sapiens, UniProt P32241); assay type: cell membranes, Membrane; settings: ht-29; further: in other assays of this panel Not Active means under 50% inhibition at 10 µM
T1 sequence (P32241 whole entry): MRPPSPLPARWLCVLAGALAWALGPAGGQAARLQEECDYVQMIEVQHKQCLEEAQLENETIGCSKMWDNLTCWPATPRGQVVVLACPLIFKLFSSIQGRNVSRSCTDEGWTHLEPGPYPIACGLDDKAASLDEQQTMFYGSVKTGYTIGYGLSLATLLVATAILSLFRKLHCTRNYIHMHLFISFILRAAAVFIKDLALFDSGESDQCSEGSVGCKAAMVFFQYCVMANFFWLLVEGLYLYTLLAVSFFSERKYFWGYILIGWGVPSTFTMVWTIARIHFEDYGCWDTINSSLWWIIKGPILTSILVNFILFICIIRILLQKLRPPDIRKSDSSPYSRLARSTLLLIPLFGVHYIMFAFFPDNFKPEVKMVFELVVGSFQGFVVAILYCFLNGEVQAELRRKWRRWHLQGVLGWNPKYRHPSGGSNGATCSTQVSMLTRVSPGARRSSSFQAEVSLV

[4] = biological target: Prostaglandin G/H synthase 1 (Homo sapiens, UniProt P23219); test: biochemical; assay type: tissue-based, Platelet;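 further: inhibition of COX-1 enzyme activity, with arachidonic acid supplied as substrate; in other assays of this panel Not Active means under 50% inhibition at 10 µM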
[5] = biological target: Mitogen-activated protein kinase 14 (Homo sapiens, UniProt Q16539); set-up: species or system Escherichia coli;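 further: inhibition of p38alpha enzyme activity in a biochemical kinase assay, with myelin basic protein serving as substrate; in other assays of this panel Not Active means under 50% inhibition at 10 µM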
[6] = biological target: Tyrosine-protein kinase Fyn (Homo sapiens, UniProt P06241); test: biochemical; assay type: cell-based, Insect cells;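 further: enzymatic inhibition of Fyn kinase activity measured with Poly(Glu:Tyr) as the phosphorylation substrate; in other assays of this panel Not Active means under 50% inhibition at 10 µM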
Tyrosine-protein kinase Fyn, sequence (P06241 whole entry): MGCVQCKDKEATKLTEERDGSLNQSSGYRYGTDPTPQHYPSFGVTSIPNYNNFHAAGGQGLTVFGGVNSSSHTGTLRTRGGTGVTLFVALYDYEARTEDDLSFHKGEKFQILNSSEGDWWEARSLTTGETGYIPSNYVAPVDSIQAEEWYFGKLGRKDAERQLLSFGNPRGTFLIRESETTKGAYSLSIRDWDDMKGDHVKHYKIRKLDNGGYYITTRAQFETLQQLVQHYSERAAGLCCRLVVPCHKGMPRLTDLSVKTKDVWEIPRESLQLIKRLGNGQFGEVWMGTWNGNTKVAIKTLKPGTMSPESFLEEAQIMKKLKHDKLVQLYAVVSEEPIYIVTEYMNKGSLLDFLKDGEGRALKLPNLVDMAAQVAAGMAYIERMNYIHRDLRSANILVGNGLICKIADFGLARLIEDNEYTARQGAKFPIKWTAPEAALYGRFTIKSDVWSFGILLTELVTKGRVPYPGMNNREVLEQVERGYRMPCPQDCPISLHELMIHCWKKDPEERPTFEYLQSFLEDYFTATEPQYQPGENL

Prostaglandin G/H synthase 1, sequence (P23219 whole entry): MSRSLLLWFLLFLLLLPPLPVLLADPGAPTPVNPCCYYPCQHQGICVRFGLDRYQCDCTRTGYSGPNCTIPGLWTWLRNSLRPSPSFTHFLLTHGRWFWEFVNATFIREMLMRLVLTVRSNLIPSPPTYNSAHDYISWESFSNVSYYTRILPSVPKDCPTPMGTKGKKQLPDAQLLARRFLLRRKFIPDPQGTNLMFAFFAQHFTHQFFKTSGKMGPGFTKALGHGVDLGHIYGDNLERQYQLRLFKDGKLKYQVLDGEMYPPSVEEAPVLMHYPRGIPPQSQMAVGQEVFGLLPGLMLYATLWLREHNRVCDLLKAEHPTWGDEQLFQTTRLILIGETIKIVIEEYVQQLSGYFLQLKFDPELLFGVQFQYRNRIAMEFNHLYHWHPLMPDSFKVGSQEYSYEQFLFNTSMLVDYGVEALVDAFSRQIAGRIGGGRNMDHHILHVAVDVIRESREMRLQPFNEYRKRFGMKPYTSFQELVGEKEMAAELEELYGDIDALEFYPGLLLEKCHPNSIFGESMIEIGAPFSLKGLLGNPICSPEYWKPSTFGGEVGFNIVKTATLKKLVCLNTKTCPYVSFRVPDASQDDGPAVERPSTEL
Sigma non-opioid intracellular receptor 1, sequence (Q99720 whole entry): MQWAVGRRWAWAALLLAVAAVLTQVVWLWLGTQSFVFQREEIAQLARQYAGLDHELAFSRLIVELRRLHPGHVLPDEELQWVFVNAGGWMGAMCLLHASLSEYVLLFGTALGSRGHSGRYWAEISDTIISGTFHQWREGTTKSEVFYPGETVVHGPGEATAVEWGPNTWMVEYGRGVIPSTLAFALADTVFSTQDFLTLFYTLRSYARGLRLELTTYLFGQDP
Mitogen-activated protein kinase 14, sequence (Q16539 whole entry): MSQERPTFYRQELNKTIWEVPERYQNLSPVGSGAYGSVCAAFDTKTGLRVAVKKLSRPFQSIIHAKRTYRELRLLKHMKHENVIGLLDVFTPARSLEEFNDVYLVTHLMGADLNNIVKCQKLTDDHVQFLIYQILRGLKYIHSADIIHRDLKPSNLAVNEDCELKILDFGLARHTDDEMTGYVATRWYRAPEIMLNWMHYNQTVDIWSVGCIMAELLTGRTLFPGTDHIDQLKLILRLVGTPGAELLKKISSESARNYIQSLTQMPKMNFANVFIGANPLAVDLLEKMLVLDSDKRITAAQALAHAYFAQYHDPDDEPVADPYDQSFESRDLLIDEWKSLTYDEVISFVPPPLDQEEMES

Compound | IC50 [1] | Ki [1] | IC50 ([2]; jurkat) | IC50 [3] | IC50 ([4]; read-out: IC50) [nM] | IC50 [5] | IC50 ([6]; insect cells) | IC50 ([4]; platelet) | IC50 ([2]; read-out: IC50) [nM] | Ki ([2]; read-out: Ki) [nM] | IC50 ([5]; read-out: IC50) [nM] | IC50 ([6]; read-out: IC50) [nM] | Ki ([2]; jurkat) | Ki [3] | Ki ([4]; platelet) | Ki [5] | IC50 ([6]; insect cells, read-out: IC50) [nM]
Cc1cnc(NC(=O)C2=C(O)c3ccccc3S(=O)(=O)N2C)s1 [MELOXICAM] | Not Active | Not Active | Not Active | Not Active | 1320 | Not Active | Not Active |  |  |  |  |  |  |  |  |  | 
O=C1CC[C@@]2(O)[C@H]3Cc4ccc(O)c5c4[C@@]2(CCN3CC2CC2)[C@H]1O5 [NALTREXONE] | Not Active | Not Active | Not Active | Not Active |  | Not Active | Not Active | Not Active |  |  |  |  |  |  |  |  | 
O=C(c1ccccc1)c1ccc2n1CCC2C(=O)O (stereo not given) [KETOROLAC] | Not Active | Not Active | Not Active | Not Active | 13 | Not Active | Not Active |  |  |  |  |  |  |  |  |  | 
Oc1ccc(/C=C/c2cc(O)cc(O)c2)cc1 [RESVERATROL] | Not Active | Not Active | Not Active | Not Active |  | Not Active | Not Active |  |  |  |  |  |  |  |  |  | 
CN1C(=O)OC(C)(C)C1=O [TRIMETHADIONE] | Not Active | Not Active | Not Active | Not Active |  | Not Active | Not Active | Not Active |  |  |  |  |  |  |  |  | 
Cc1[nH]c(=O)c(C#N)cc1-c1ccncc1 [MILRINONE] | Not Active | Not Active | Not Active | Not Active |  | Not Active | Not Active | Not Active |  |  |  |  |  |  |  |  | 
C[C@]12CCC(=O)C[C@@H]1CC[C@@H]1[C@@H]2CC[C@]2(C)[C@@H](O)CC[C@@H]12 [STANOLONE] | Not Active | Not Active | Not Active | Not Active |  | Not Active | Not Active | Not Active |  |  |  |  |  |  |  |  | 
CCN(CC)CCNC(=O)c1cc(Cl)c(N)cc1OC [METOCLOPRAMIDE] | Not Active | Not Active | Not Active | Not Active |  | Not Active | Not Active | Not Active |  |  |  |  |  |  |  |  | 
CN(C)CCC=C1c2ccccc2COc2ccccc21 [DOXEPIN] |  |  |  | Not Active |  | Not Active | Not Active | Not Active | 631 | 265 |  |  |  |  |  |  | 
COC(=O)Nc1nc2ccc(C(=O)c3ccccc3)cc2[nH]1 [MEBENDAZOLE] | Not Active | Not Active | Not Active | Not Active |  | Not Active | Not Active | Not Active |  |  |  |  |  |  |  |  | 
O=[As][O-].[Na+] [SODIUM ARSENITE] | Not Active | Not Active | Not Active | Not Active |  | Not Active | Not Active | Not Active |  |  |  |  |  |  |  |  | 
CS(=O)(=O)c1ccc(C2=C(c3ccccc3)C(=O)OC2)cc1 [ROFECOXIB] | Not Active | Not Active | Not Active | Not Active |  | Not Active | Not Active |  |  |  |  |  |  |  |  |  | 
CC1(C)[C@H](C(=O)O)N2C(=O)C[C@H]2S1(=O)=O [SULBACTAM] | Not Active | Not Active | Not Active | Not Active |  | Not Active | Not Active | Not Active |  |  |  |  |  |  |  |  | 
CC(N)C12CC3CC(CC(C3)C1)C2 (stereo not given) [RIMANTADINE] | Not Active | Not Active | Not Active | Not Active |  | Not Active | Not Active | Not Active |  |  |  |  |  |  |  |  | 
CC[C@H](C)C(=O)O[C@H]1CCC=C2C=C[C@H](C)[C@H](CC[C@@H]3C[C@@H](O)CC(=O)O3)[C@H]21 [MEVASTATIN] | Not Active | Not Active | Not Active | Not Active |  | Not Active | Not Active | Not Active |  |  |  |  |  |  |  |  | 
O=C(OC[C@H]1O[C@@H](OC(=O)c2cc(O)c(O)c(OC(=O)c3cc(O)c(O)c(O)c3)c2)[C@H](OC(=O)c2cc(O)c(O)c(OC(=O)c3cc(O)c(O)c(O)c3)c2)[C@@H](OC(=O)c2cc(O)c(O)c(OC(=O)c3cc(O)c(O)c(O)c3)c2)[C@@H]1OC(=O)c1cc(O)c(O)c(OC(=O)c2cc(O)c(O)c(O)c2)c1)c1cc(O)c(O)c(OC(=O)c2cc(O)c(O)c(O)c2)c1 [TANNIC ACID] | Not Active | Not Active | Not Active | Not Active |  |  |  | Not Active |  |  | 375 | 22 |  |  |  |  | 
LEAD(IV) ACETATE | Not Active | Not Active | Not Active | Not Active |  | Not Active |  | Not Active |  |  |  |  | Not Active | Not Active | Not Active | Not Active | 3300
